Measured values from patent US11986531B2, “Compounds and methods for the targeted degradation of rapidly accelerated fibrosarcoma polypeptides” (ARVINAS OPERATIONS, INC., priority 2016, dated 2024).

System: BRAF mutants (Class 1, Class 2 and Class 3)
Assay: targeted degradation of BRAF mutants (summary of FIGS. 4-10)
Assay type: cell-based
Conditions: BRAF mutants sensitive (Class 1) and insensitive (Class 2 and Class 3) to vemurafenib

For `CCCS(=O)(=O)Nc1ccc(F)c(C(=O)c2c[nH]c3ncc(-c4ccc(N5CCN(CC(=O)N[C@H](C(=O)N6C[C@H](O)C[C@H]6C(=O)NCc6ccc(-c7scnc7C)cc6)C(C)(C)C)CC5)cc4)cc23)c1F` [compound 512, (2S,4R)-1-((S)-2-(2-(4-(4-(3-(2,6-difluoro-3-(propylsulfonamido)benzoyl)-1H-pyrrolo[2,3-b]pyridin-5-yl)phenyl)piperazin-1-yl)acetamido)-3,3-dimethylbutanoyl)-4-hydroxy-N-(4-(4-methylthiazol-5-yl)benzyl)pyrrolidine-2-carboxamide], the “targeted degradation of BRAF mutants” value was “induces targeted degradation of BRAF mutants sensitive (Class 1) and insensitive (Class 2 and Class 3) to vemurafenib”.
